# Test results from US9962388B2, “Pyrrolopyrimidine compounds used as TLR7 agonist” (priority 2014, dated 2018).
# Read-outs that look alike come from different tables or passages of the source.
# Tests used:
# Toll-like receptor 8 = Toll-like receptor 8 (Homo sapiens (Human), UniProt Q9NR97); assay: Toll-like receptor 8 in vitro receptor binding activity screen (HEK-blue hTLR8 cell, alkaline phosphatase/Quanti-Blue readout); type: cell-based
# Protocol: (§1) Toll-Like Receptor 7 and Toll-Like Receptor 8 In Vitro Receptor Binding Activity Screen
# (§2) HEK-blue hTLR7 cell and HEK-blue hTLR8 cell (available from InvivoGen)
# (§3) 1. Preparation of 96-well compound plate:
# (§4) The compounds were gradient diluted with DMSO in 3-fold using liquid work station POD starting at a concentration of 10 mmol/L and 10 points were diluted (2nd column to 11th column, and each point was duplicated). At 12th column, 1 μL of 5 mg/mL positive compound R848 was added as positive control; and at 1st column, 1 μL of DMSO was added as negative control. Each well contained 1 μL of DMSO.
# (§5) 2. The cells in culture flask were collected and the cell density was diluted to 250,000 cells/mL.
# (§6) 3. 200 μL (50,000 cells/well) of cell suspension was added into prepared compound plate and the final concentration of DMSO in each well was 0.5%.
# (§7) 4. The culture plates containing cells and the compounds were incubated in CO2 incubator for 24 h at 37° C., 5% CO2.
# (§8) 5. After 24 h incubation, 20 μL of supernatant was removed from each well to a 96-well transparent assay plate. To each well of the assay plate was added 180 μL of Quanti-Blue reagent and the plate was incubated in an incubator at 37° C., 5% CO2 for 1 h.
# (§9) 6. After 1 h, the content of alkaline phosphatase in 20 μL of supernatant was determined using Microplate Reader OD650.
# (§10) 7. EC50 of each compound was obtained with Prism software.
# hepatitis b virus = assay: In vivo pharmacodynamics in HDI (hydrodynamic injection) mouse model infected with hepatitis b virus; conditions: 20 mg/kg intragastric, once a day, day 1 to day 7; FIGS. 1 and 2
# Protocol: In Vivo Pharmacodynamics in HDI (Hydrodynamic Injection) Mouse Model Infected with Hepatitis b Virus
# Experimental Design and Procedures:
# Route: intragastric administration
# Administration time: day 1 to day 7, 7 days in total
# At day 1, 3, 5 and 7, plasma samples were collected 4 h after administration; and at day 7, liver sample was collected 4 h after administration.
# Toll-like receptor 7 = Toll-like receptor 7 (Homo sapiens (Human), UniProt Q9NYK1); assay: Toll-like receptor 7 in vitro receptor binding activity screen (HEK-blue hTLR7 cell, alkaline phosphatase/Quanti-Blue readout); type: cell-based; conditions: for EC50: HEK-blue hTLR7 cell, read-out: TLR7 EC50
# Chain of Toll-like receptor 7 (Q9NYK1 27-1049): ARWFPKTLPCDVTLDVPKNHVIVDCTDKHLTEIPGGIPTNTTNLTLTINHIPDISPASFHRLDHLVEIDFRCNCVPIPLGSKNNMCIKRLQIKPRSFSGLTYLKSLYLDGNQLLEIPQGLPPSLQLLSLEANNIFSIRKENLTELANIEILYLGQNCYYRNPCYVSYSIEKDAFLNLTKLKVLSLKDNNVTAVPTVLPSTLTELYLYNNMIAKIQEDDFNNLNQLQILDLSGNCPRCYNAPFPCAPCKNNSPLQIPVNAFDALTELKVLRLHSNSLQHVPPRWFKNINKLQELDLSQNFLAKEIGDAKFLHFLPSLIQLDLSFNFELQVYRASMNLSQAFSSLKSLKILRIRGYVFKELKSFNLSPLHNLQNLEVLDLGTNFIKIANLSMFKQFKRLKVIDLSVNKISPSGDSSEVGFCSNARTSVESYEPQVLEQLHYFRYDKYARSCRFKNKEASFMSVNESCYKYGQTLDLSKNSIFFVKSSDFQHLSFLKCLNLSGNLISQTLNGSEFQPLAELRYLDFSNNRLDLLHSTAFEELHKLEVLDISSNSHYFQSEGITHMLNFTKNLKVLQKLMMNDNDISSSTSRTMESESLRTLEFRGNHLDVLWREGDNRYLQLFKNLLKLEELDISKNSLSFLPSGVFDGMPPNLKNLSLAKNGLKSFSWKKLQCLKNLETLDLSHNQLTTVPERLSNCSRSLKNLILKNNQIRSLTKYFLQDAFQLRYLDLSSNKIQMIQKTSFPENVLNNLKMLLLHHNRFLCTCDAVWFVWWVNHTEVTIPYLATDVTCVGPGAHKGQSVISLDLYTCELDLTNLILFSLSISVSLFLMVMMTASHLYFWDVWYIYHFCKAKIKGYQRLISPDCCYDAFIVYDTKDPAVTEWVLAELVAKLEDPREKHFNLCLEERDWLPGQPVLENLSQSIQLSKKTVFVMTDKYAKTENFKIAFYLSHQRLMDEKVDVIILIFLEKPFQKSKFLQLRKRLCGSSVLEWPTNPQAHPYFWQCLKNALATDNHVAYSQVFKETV
# Protocol: as §1, §2, §3, §4, §5, §6, §7, §8, §9, §10
# [1] = test system: human peripheral blood mononuclear cells (PBMC); assay: Peripheral blood mononuclear cell assay (cytokine induction, CBA); type: cell-based; conditions: for minimal effective concentration: Homo sapiens, read-out: INF-α MEC
# Protocol: Peripheral Blood Mononuclear Cell Assay The purpose of this example is to determine the expression level of cytokines 24 h after stimulation to human peripheral blood mononuclear cells (PBMC) with the compounds. The cell supernatant was assayed without dilution and the levels of IFN-α and TNF-α were directly determined. The compound was firstly formulated into 20 mM DMSO stock solution and was gradient diluted with cell medium in 10-fold with the total number of 11 diluting points. The compounds in 9 diluting points (the highest concentration was 200 μmol/L) were added into 96-well plate with 50 μL in each well. Fresh human peripheral blood mononuclear cells were inoculated, with 150 μL in each well containing 450,000 cells. The cell culture plate was incubated in an incubator at 37° C., 5% CO2 for 24 h. After incubation, the culture plate was centrifuged at 1200 rpm for 5 min and the supernatant was collected and stored at −20° C. for determination. The determination of cytokine was performed using Cytometric Bead Array (CBA) of BD-Pharmingen on flow cytometer. Using the above determining method, the lowest drug concentration stimulating cytokine level which is over 3 times greater than the lowest detectable limit was designated as the MEC (Minimal Effective Concentration) value in the cytokine stimulating test.
# duck hepatitis b virus = assay: In vivo pharmacodynamics in duckling model infected with hepatitis B virus; parameters: species or system Beijing ducks
# Protocol: In Vivo Pharmacodynamics in Duckling Model Infected with Hepatitis B Virus
# Experimental design and procedures: Beijing ducks of 1 day old were intravenously administered duck hepatitis b virus positive duck serum. After 7 days, the animals were administered according to grouping, 6 ducks in each group. Control group: normal saline. […] The samples were administered intragastricly: 20 mg/kg groups were administered once every third day (one administration every 3 days) and 5 mg/kg groups were administered once every day for 16 days. […] For control group infected with duck hepatitis b virus, solvent was used instead of drug. 7 days after infection, the blood was collected before administration (TO),8 days after administration (T8),16 days after administration (T16) and 3 day after ceasing administration (P3), and the duck serum was separated and frozen for storage. […] Duck serum DNA (DHBV-DNA) determination: different duck sera in a batch were determined for duck blood DHBV-DNA level with real time fluorescent quantitative PCR. Statistics analysis: paired and grouped analysis was used to calculate the significance of inhibition of drug on duck serum DHBV-DNA for assessment.
# in vivo = conditions: rat
# Protocol: 12 male SD rats were divided into 4 groups with 3 SD rats in each group. […] […] Each rat with oral administration was collected for whole blood samples which were prepared into plasma 15, 30 min and 1, 2, 4, 8, 24 h continuously after administration.
# Chain of Toll-like receptor 8 (Q9NR97 27-1041): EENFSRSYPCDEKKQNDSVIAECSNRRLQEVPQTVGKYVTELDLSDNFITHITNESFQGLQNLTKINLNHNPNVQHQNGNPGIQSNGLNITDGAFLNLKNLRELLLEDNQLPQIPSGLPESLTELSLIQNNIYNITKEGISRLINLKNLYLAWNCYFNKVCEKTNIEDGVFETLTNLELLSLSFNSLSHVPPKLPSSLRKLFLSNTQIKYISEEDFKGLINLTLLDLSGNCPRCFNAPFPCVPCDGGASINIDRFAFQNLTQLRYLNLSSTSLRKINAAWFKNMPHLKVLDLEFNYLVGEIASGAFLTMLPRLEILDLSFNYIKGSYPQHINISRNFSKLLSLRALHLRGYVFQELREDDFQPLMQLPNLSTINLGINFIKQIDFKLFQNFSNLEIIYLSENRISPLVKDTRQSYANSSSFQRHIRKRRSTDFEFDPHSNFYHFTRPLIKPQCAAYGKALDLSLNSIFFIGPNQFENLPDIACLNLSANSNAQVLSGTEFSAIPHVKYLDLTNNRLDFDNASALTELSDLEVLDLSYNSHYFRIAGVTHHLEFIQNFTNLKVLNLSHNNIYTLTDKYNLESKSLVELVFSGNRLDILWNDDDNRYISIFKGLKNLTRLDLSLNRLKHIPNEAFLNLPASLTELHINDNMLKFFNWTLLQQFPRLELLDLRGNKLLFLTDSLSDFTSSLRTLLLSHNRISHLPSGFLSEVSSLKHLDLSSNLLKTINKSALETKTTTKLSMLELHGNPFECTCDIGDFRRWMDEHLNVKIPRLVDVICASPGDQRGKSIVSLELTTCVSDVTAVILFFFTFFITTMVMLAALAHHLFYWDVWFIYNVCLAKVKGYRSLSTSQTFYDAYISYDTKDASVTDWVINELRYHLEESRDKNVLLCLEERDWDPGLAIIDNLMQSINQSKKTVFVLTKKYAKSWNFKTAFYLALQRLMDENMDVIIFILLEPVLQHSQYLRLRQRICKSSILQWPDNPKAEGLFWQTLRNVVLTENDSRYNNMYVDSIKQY
structure (smiles),measurement,setting,value
"CCCCOc1nc(N)c2[nH]cc(Cc3ccc(CN4CCCC4)cc3)c2n1 [Example 21, 2-butoxy-7-(4-(pyrrolidine-1-ylmethyl)benzyl)-5H-pyrrolo[3,2-d]pyrimidine-4-amine]",EC50,"Toll-like receptor 8; HEK-blue hTLR8 cell, head-to-head test, read-out: TLR8 EC50",11600 nM
same,in vitro receptor binding activity to Toll-like receptor 8 compared with GS-9620,Toll-like receptor 8; versus control GS-9620,lower
same,efficacy by HBV copy numbers in plasma and liver compared with GS-9620,hepatitis b virus,better efficacy
same,EC50,Toll-like receptor 7; 24 h,100 to 1000 nM
same,EC50,Toll-like receptor 7; head-to-head test,160 nM
same,in vitro receptor binding activity to Toll-like receptor 7 compared with GS-9620,Toll-like receptor 7; versus control GS-9620,higher
same,minimal effective concentration,"[1]; PBMC, 24 h, human PBMC, 24 h, Minimal Effective Concentration",1e-05 to 0.001 µM
same,minimal effective concentration,"[1]; PBMC, 24 h, human PBMC, 24 h, head-to-head test",0.005 µM
same,TNF-α inducing activity compared with GS-9620,"[1]; PBMC, versus control GS-9620",comparable
same,in vitro IFN-α inducing activity compared with GS-9620,"[1]; PBMC, versus control GS-9620",higher
same,TNF-α MEC,"[1]; human PBMC, 24 h, head-to-head test",500 nM
same,Duck serum HBV-DNA inhibition %,"duck hepatitis b virus; 5 mg/kg intragastric once every day for 16 days, P3",95.55 ± 3.56 %
same,Duck serum HBV-DNA inhibition %,"duck hepatitis b virus; 5 mg/kg intragastric once every day for 16 days, T8",99.96 ± 0.06 %
same,inhibition rate compared with GS-9620,"duck hepatitis b virus; 5 mg/kg, one administration everyday",significant advantage
same,Duck serum HBV-DNA inhibition %,"duck hepatitis b virus; 20 mg/kg intragastric once every third day, P3 (3 days after ceasing administration)",92.81 ± 13.79 %
same,Duck serum HBV-DNA inhibition %,"duck hepatitis b virus; 20 mg/kg intragastric once every third day, T8 (8 days after administration)",100.0 ± 0 %
same,Duck serum HBV-DNA inhibition %,"duck hepatitis b virus; 20 mg/kg intragastric once every third day, T16 (16 days after administration)",98.80 ± 1.84 %
same,rebound of HBV-DNA replication,"duck hepatitis b virus; 20 mg/kg one administration every third day, 3 days after ceasing administration",no rebound
same,inhibition rate compared with GS-9620,"duck hepatitis b virus; 20 mg/kg, one administration every third day",roughly comparable
same,AUC(0-inf),"in vivo; male, SD, iv, 1 mg/kg",0.676 µM·h
same,AUC(0-t),"in vivo; male, SD, iv, 1 mg/kg",0.641 µM·h
same,Cmax,"in vivo; male, SD, iv, 1 mg/kg",478 nM
same,Vd,"in vivo; male, SD, iv, 1 mg/kg",29 L/kg
same,clearance,"in vivo; male, SD, iv, 1 mg/kg",65.8 mL/min/kg
same,half-life,"in vivo; male, SD, iv, 1 mg/kg",5.76 h
same,Mean plasma drug concentration,"in vivo; male, SD, iv, 1 mg/kg, 0.083 h",318 nM
same,Mean plasma drug concentration,"in vivo; male, SD, iv, 1 mg/kg, 0.25 h",141 nM
same,Mean plasma drug concentration,"in vivo; male, SD, iv, 1 mg/kg, 0.5 h",109 nM
same,Mean plasma drug concentration,"in vivo; male, SD, iv, 1 mg/kg, 1 h",74.3 nM
same,Mean plasma drug concentration,"in vivo; male, SD, iv, 1 mg/kg, 2 h",48.9 nM
same,Mean plasma drug concentration,"in vivo; male, SD, iv, 1 mg/kg, 4 h",37.7 nM
same,Mean plasma drug concentration,"in vivo; male, SD, iv, 1 mg/kg, 8 h",31.6 nM
same,Mean plasma drug concentration,"in vivo; male, SD, iv, 1 mg/kg, 24 h",3.94 nM
same,AUC(0-inf),"in vivo; male, SD, po, 5 mg/kg",0.749 µM·h
same,AUC(0-t),"in vivo; male, SD, po, 5 mg/kg",0.699 µM·h
same,Cmax,"in vivo; male, SD, po, 5 mg/kg",186 nM
same,half-life,"in vivo; male, SD, po, 5 mg/kg",6.24 h
same,Mean plasma drug concentration,"in vivo; male, SD, po, 5 mg/kg, 0.25 h",69.4 nM
same,Mean plasma drug concentration,"in vivo; male, SD, po, 5 mg/kg, 0.5 h",41.6 nM
same,Mean plasma drug concentration,"in vivo; male, SD, po, 5 mg/kg, 1 h",36.4 nM
same,Mean plasma drug concentration,"in vivo; male, SD, po, 5 mg/kg, 2 h",186 nM
same,Mean plasma drug concentration,"in vivo; male, SD, po, 5 mg/kg, 4 h",51.2 nM
same,Mean plasma drug concentration,"in vivo; male, SD, po, 5 mg/kg, 8 h",23.9 nM
same,Mean plasma drug concentration,"in vivo; male, SD, po, 5 mg/kg, 24 h",5.25 nM
same,exposure compared with GS-9620,in vivo,higher exposure
same,half-life compared with GS-9620,in vivo,longer half-life
